A short description of data set [1]: Aqueous Hydrolysis Stability Assay. The data set is classed as physicochemical. Particulars: 100 μM in 50 mM HEPES pH 7.5 buffer or 1:1 Acetonitrile:Water, room temperature. How it is done: Determination of aqueous stability of the test compounds was performed using HPLC-MS. A test compound 10 mM stock solution was prepared in DMSO. 10 μl of the DMSO stock solution was dissolved in 990 μl of 50 mM HEPES pH 7.5 buffer or 1:1 (v/v) of Acetonitrile:Water to make a 100 μM solution. Final DMSO concentration was 1%. The solution was kept at room temperature and injected without delay into the LCMS (Waters Xevo TQ-S or Micromass Ultima). Additional injections were performed at appropriate time points.
Half-life (T1/2) of the parent conjugate was calculated using the peak area of the parent conjugate at each time point in the linear region of the log—linear plot.

The subject of a further data set is Rabbit Cornea Homogenate. The data set is described as follows: Rabbit Cornea Homogenate Stability Assay (rabbit cornea esterase assay). Type of data set: in vitro ADME. Particulars: 37° C. How it is done: Determining Rabbit Cornea Homogenate stability of the test compounds was performed using HPLC-MS. The assay was performed at two concentrations of Rabbit Cornea Homogenate (0.15 mg/ml and 0.45 mg/ml total protein) so that any hydrolysis observed could be assigned as esterase dependent or not.
Five rabbit corneas (e.g. New Zealand Whites) of approx. 50 mg each were sliced and scraped with a scalpel and tweezers until reduced to small (1-3 mm), thin pieces. These were transferred into a tared vial and accurately weighed, then diluted with 10 volumes aqueous PBS pH7.4
Sample was cooled intermittently on ice and shear homogenized for 3 minutes, then centrifuged for 3 min at 3000 rpm. The supernatant was pipetted off into a vial, and total protein concentration determined at 280 nm. Sample was stored at −78° C.
10 mM Compound stocks were diluted to 100 μM in a 96 deep-well plate: 10 μl of 10 mM Compound stock was added to 990 μl 50 mM HEPES, pH7.5 buffer.
Compounds were further diluted to 10 μM: 100 μl of 100 μM compound was added to 900 μl 50 mM HEPES, pH7.5 buffer.
Esterase homogenate was diluted to 300 ng/μl and 900 ng/μl
A heater shaker was set to 37° C. Into a suitable 96 well plate (Run Plate), 75 μl of 300 or 900 ng/μl esterase homogenate was pipetted into each of the required wells (2 min, 5 min, 10 min, 20 min and 45 min). The plate was sealed and then warmed at 37° C. for 5 min. Another 96 well PCR plate is put on ice (Kill Plate). To this was added 100 μl of MeCN to each well, labelled 0 min, 2 min, 5 min, 10 min, 20 min and 45 min. The plate was covered to minimise evaporation. For the T=0 sample only, to the 100 μl cold MeCN stop solution was added 50 μl of 300 or 900 ng/μl esterase homogenate followed by 50 μl of 10 μM compound solution For the remaining time points, 75 μl of 10 μM compound solution was added to the Run Plate starting from T=45 min row and ending with T=2 min row. At the appropriate time point, 100 μl of the assay mixture was added to the matching kill plate well containing 100 μl of cold MeCN. Samples were analysed as soon as practicable by LCMS (Waters Xevo TQ-S or Micromass Ultima).
Parent conjugate and parent concentrations were determined against appropriate standard response curves and the half-life (T1/2) of the parent conjugate was calculated using the peak area of the parent conjugate at each time point in the linear region of the log—linear plot.

Where [2] appears, read: Cornea Homogenate Conc 0.15 mg/mL.
Setting [3] is: Cornea Homogenate Conc 0.45 mg/mL.

For `CC(OC(=O)OCC(CO)CO)OC(=O)[C@H](Cc1cccc(S(C)(=O)=O)c1)NC(=O)c1c(Cl)cc2c(c1Cl)CCN(C(=O)c1ccc3ccoc3c1)C2` (stereo partly drawn) [Comp 10, 1-(((3-hydroxy-2-(hydroxymethyl)propoxy)carbonyl)oxy)ethyl (2S)-2-(2-(benzofuran-6-carbonyl)-5,7-dichloro-1,2,3,4-tetrahydroisoquinoline-6-carboxamido)-3-(3-(methylsulfonyl)phenyl) propanoate], in data set [1] (at 142 min), the “Hydrolytic % Lifitegrast formation at [time]” value was “C [142 min] (percent API formation>4%)”. Also, in the data set with Rabbit Cornea Homogenate (setting [2]), the “API Formation rate” value is listed as “b (API formation rate 0.5-1.0%/min)” and the “Esterase % Lifitegrast formation at 45 min” value is listed as “A (percent active pharmaceutical ingredient (API) formation<25%)”. Besides, in the data set on Rabbit Cornea Homogenate (setting [3]), the “API Formation rate” value was “b (API formation rate 0.5-1.0%/min)” and the “Esterase % Lifitegrast formation at 45 min” value is recorded as “B (percent API formation 25% to 50%)”.

Take `CC(=O)OCC(COC(C)=O)COC(=O)OC(C)OC(=O)[C@H](Cc1cccc(S(C)(=O)=O)c1)NC(=O)c1c(Cl)cc2c(c1Cl)CCN(C(=O)c1ccc3ccoc3c1)C2` (stereo partly drawn) [Comp 11, 2-((8S)-10-(2-(benzofuran-6-carbonyl)-5,7-dichloro-1,2,3,4-tetrahydroisoquinolin-6-yl)-5-methyl-8-(3-(methylsulfonyl)benzyl)-3,7,10-trioxo-2,4,6-trioxa-9-azadecyl)propane-1,3-diyl diacetate]: the “Hydrolytic % Lifitegrast formation at [time]” value in data set [1] (at 142 min) was “C [142 min] (percent API formation>4%)”. In the data set on Rabbit Cornea Homogenate (setting [2]), the “API Formation rate” value is “b (API formation rate 0.5-1.0%/min)” and the “Esterase % Lifitegrast formation at 45 min” value is on record as “B (percent API formation 25% to 50%)”. In the data set with Rabbit Cornea Homogenate (setting [3]), the “API Formation rate” value was “c (API formation rate 1.0-1.5%/min)” and the “Esterase % Lifitegrast formation at 45 min” value is given as “B (percent API formation 25% to 50%)”.

`CC(OC(=O)OCC(COC(=O)C(C)(C)C)COC(=O)C(C)(C)C)OC(=O)[C@H](Cc1cccc(S(C)(=O)=O)c1)NC(=O)c1c(Cl)cc2c(c1Cl)CCN(C(=O)c1ccc3ccoc3c1)C2` (stereo partly drawn) [Comp 12, 2-((8S)-10-(2-(benzofuran-6-carbonyl)-5,7-dichloro-1,2,3,4-tetrahydroisoquinolin-6-yl)-5-methyl-8-(3-(methylsulfonyl)benzyl)-3,7,10-trioxo-2,4,6-trioxa-9-azadecyl)propane-1,3-diyl bis(2,2-dimethylpropanoate)]: in data set [1] (at 142 min), the “Hydrolytic % Lifitegrast formation at [time]” value was “B [142 min] (percent API formation 1.5-4%)”. Besides, in the data set on Rabbit Cornea Homogenate (setting [2]), the “API Formation rate” value was “a (API formation rate<0.5%/min)” and the “Esterase % Lifitegrast formation at 45 min” value is reported as “A (percent active pharmaceutical ingredient (API) formation<25%)”. In the data set on Rabbit Cornea Homogenate (setting [3]), the “API Formation rate” value is “a (API formation rate<0.5%/min)” and the “Esterase % Lifitegrast formation at 45 min” value was “A (percent active pharmaceutical ingredient (API) formation<25%)”.

Consider `CC(=O)OC(C)OC(=O)[C@H](Cc1cccc(S(C)(=O)=O)c1)NC(=O)c1c(Cl)cc2c(c1Cl)CCN(C(=O)c1ccc3ccoc3c1)C2` (stereo partly drawn) [Comp 14, 1-acetoxyethyl (2S)-2-(2-(benzofuran-6-carbonyl)-5,7-dichloro-1,2,3,4-tetrahydroisoquinoline-6-carboxamido)-3-(3-(methylsulfonyl)phenyl) propanoate], for which, in data set [1] (at 142 min), the “Hydrolytic % Lifitegrast formation at [time]” value is “B [142 min] (percent API formation 1.5-4%)”. In the data set on Rabbit Cornea Homogenate (setting [2]), the “API Formation rate” value is “c (API formation rate 1.0-1.5%/min)” and the “Esterase % Lifitegrast formation at 45 min” value is “C (percent API formation 51% to 75%)”. Further, in the data set on Rabbit Cornea Homogenate (setting [3]), the “API Formation rate” value is given as “d (API formation rate>1.5%/min)” and the “Esterase % Lifitegrast formation at 45 min” value is listed as “D (percent API formation>75%)”.

On to `CCC(=O)OC(C)OC(=O)[C@H](Cc1cccc(S(C)(=O)=O)c1)NC(=O)c1c(Cl)cc2c(c1Cl)CCN(C(=O)c1ccc3ccoc3c1)C2` (stereo partly drawn) [Comp 15, 1-(propionyloxy)ethyl (2S)-2-(2-(benzofuran-6-carbonyl)-5,7-dichloro-1,2,3,4-tetrahydroisoquinoline-6-carboxamido)-3-(3-(methylsulfonyl)phenyl) propanoate], for which the “Hydrolytic % Lifitegrast formation at [time]” value in data set [1] (at 45 min) is “B [45 min] (percent API formation 1.5-4%)”. In addition, the “API Formation rate” value with Rabbit Cornea Homogenate (setting [2]) and in the data set with Rabbit Cornea Homogenate (setting [3]) was “d (API formation rate>1.5%/min)” in each case. For the same compound, the results for the “Esterase % Lifitegrast formation at 45 min” value in the data set with Rabbit Cornea Homogenate (setting [2]) and with Rabbit Cornea Homogenate (setting [3]) were “C (percent API formation 51% to 75%)” and “D (percent API formation>75%)”, respectively.

On to `CC(OC(=O)C(C)C)OC(=O)[C@H](Cc1cccc(S(C)(=O)=O)c1)NC(=O)c1c(Cl)cc2c(c1Cl)CCN(C(=O)c1ccc3ccoc3c1)C2` (stereo partly drawn) [Comp 16, 1-(isobutyryloxy)ethyl (2S)-2-(2-(benzofuran-6-carbonyl)-5,7-dichloro-1,2,3,4-tetrahydroisoquinoline-6-carboxamido)-3-(3-(methylsulfonyl)phenyl) propanoate], for which the “Hydrolytic % Lifitegrast formation at [time]” value in data set [1] (at 142 min) is “C [142 min] (percent API formation>4%)”. Further, the “API Formation rate” value in the data set on Rabbit Cornea Homogenate (setting [2]) and in the data set with Rabbit Cornea Homogenate (setting [3]) was “d (API formation rate>1.5%/min)” each time. In addition, the “Esterase % Lifitegrast formation at 45 min” value with Rabbit Cornea Homogenate (setting [2]) and in the data set with Rabbit Cornea Homogenate (setting [3]) was “D (percent API formation>75%)” each time.

As to `CC(OC(=O)[C@H](Cc1cccc(S(C)(=O)=O)c1)NC(=O)c1c(Cl)cc2c(c1Cl)CCN(C(=O)c1ccc3ccoc3c1)C2)OC(=O)C(C)(C)C` (stereo partly drawn) [Comp 17, 1-(((S)-2-(2-(benzofuran-6-carbonyl)-5,7-dichloro-1,2,3,4-tetrahydroisoquinoline-6-carboxamido)-3-(3-(methylsulfonyl)phenyl)propanoyl)oxy)ethyl pivalate], in data set [1] (at 45 min), the “Hydrolytic % Lifitegrast formation at [time]” value was “A [45 min] (percent active pharmaceutical ingredient (API) formation<1.5%)”. For the same compound, the figures for the “API Formation rate” value with Rabbit Cornea Homogenate (setting [2]) and in the data set on Rabbit Cornea Homogenate (setting [3]) were “b (API formation rate 0.5-1.0%/min)” and “c (API formation rate 1.0-1.5%/min)”, respectively. Besides, the “Esterase % Lifitegrast formation at 45 min” value is on record as “B (percent API formation 25% to 50%)” with Rabbit Cornea Homogenate (setting [2]) and “C (percent API formation 51% to 75%)” with Rabbit Cornea Homogenate (setting [3]).

`CC(OC(=O)[C@H](Cc1cccc(S(C)(=O)=O)c1)NC(=O)c1c(Cl)cc2c(c1Cl)CCN(C(=O)c1ccc3ccoc3c1)C2)OC(=O)[C@@H](C)O` (stereo partly drawn) [Comp 18, 1-(((R)-2-hydroxypropanoyl)oxy) ethyl (2S)-2-(2-(benzofuran-6-carbonyl)-5,7-dichloro-1,2,3,4-tetrahydroisoquinoline-6-carboxamido)-3-(3-(methylsulfonyl)phenyl) propanoate]: in data set [1] (at 45 min), the “Hydrolytic % Lifitegrast formation at [time]” value is “C [45 min] (percent API formation>4%)”. Moreover, in the data set with Rabbit Cornea Homogenate (setting [2]), the “API Formation rate” value was “c (API formation rate 1.0-1.5%/min)” and the “Esterase % Lifitegrast formation at 45 min” value is listed as “C (percent API formation 51% to 75%)”. In the data set on Rabbit Cornea Homogenate (setting [3]), the “API Formation rate” value was “d (API formation rate>1.5%/min)” and the “Esterase % Lifitegrast formation at 45 min” value was “D (percent API formation>75%)”.

As for `CC(OC(=O)CO)OC(=O)[C@H](Cc1cccc(S(C)(=O)=O)c1)NC(=O)c1c(Cl)cc2c(c1Cl)CCN(C(=O)c1ccc3ccoc3c1)C2` (stereo partly drawn) [Comp 19, 1-(2-hydroxyacetoxy)ethyl (2S)-2-(2-(benzofuran-6-carbonyl)-5,7-dichloro-1,2,3,4-tetrahydroisoquinoline-6-carboxamido)-3-(3-(methylsulfonyl)phenyl) propanoate], in data set [1] (at 45 min), the “Hydrolytic % Lifitegrast formation at [time]” value was “B [45 min] (percent API formation 1.5-4%)”. Moreover, in the data set on Rabbit Cornea Homogenate (setting [2]), the “API Formation rate” value is on record as “b (API formation rate 0.5-1.0%/min)” and the “Esterase % Lifitegrast formation at 45 min” value is recorded as “B (percent API formation 25% to 50%)”. Further, in the data set with Rabbit Cornea Homogenate (setting [3]), the “API Formation rate” value is on record as “b (API formation rate 0.5-1.0%/min)” and the “Esterase % Lifitegrast formation at 45 min” value was “B (percent API formation 25% to 50%)”.

Source of the values: US10875845B2, “Compounds and methods for the treatment of ocular disorders” (Azura Ophthalmics Ltd., priority 2019, dated 2020).
